Read-outs that look alike come from different tables or passages of the source.
Columns and labels:
[1] = system: subjects with erectile dysfunction; assay: Erectile dysfunction treatment with low dose oral dipyridamole; assay type: in vivo, human
Text: Some subjects had either failed or could not tolerate conventional treatments.

[2] = system: subjects with chronic rheumatic pain; assay: Treatment of chronic rheumatic or fibromyalgia pain; assay type: in vivo, human
Experimental: Subject 1 was treated with 2 mg taken once daily with the first daily dose of oxycodone. Subject 2 (person twelve) was treated with 2 mg or 5 mg taken once daily, in conjunction with oxycodone. Subject 3 (person five) was treated with 2 mg, 5 mg or 10 mg taken once daily with PERCOCET.

[3] = system: subjects with CLL; assay: Treatment of chronic lymphocytic leukemia; assay type: in vivo, human; conditions: Subject 1 (person eleven), 2 mg, one month; from 25,000 (rising by 10%/month)
[4] = system: human subjects with intractable insomnia; assay: Insomnia treatment with low dose oral dipyridamole; assay type: in vivo
[5] = system: subject with prostate cancer; assay: Prostate cancer treatment; assay type: in vivo, human; conditions: person four, daily dose of 2 mg, 3 month period; from 19.1
Experimental: person four was treated with 2 mg taken in the afternoon or evening and followed for 3 months.

[6] = Storage stability of dipyridamole dissolved in propylene glycol; assay type: physicochemical; conditions: 1 year of storage at room temperature
Text: (§1) Solubility of a compound is known to increase absorption and efficacy. In other exemplary embodiments of the invention, liquid formulations are provided in gel-caps.

[7] = Solubility of dipyridamole in propylene glycol / water; assay type: physicochemical
Text: as §1

[8] = system: subject with cancer-related bone pain; assay: Treatment of cancer-related bone pain; assay type: in vivo, human; conditions: person, 2 mg in the early evening
Experimental: A person was treated with 2 mg taken in the early evening hours. The subject reported resolution of bone pain related to metastatic prostate cancer to the cervical spine within 4 days. The subject was previously dependent on the daily use of opiate pain medications for the past 6 months.

[9] = cited from earlier work
[10] = system: subjects with frequent viral infections (with upper respiratory symptoms); assay: Prevention and treatment of viral disease; assay type: in vivo, human
Experimental: Subject 1 (person eight), Subject 2 (person two), Subject 3, and Subject 4 were treated with varying doses (2, 5 and 10 mg) taken at any time during the day, for periods of 2 weeks for each dose, and thereafter continuously for up to 2 years.

[11] = system: subject with recurrent, non-streptococcal, non-specific sore throat; assay: Treatment of non-specific recurrent sore throat; assay type: in vivo, human; conditions: person, 29 kg, 1 mg/day before sleep, followed 11 months
Experimental: A person was treated with 1 mg taken before sleep and followed for 11 months in total. […] One mg dose was given based on a weight of 29 kg.

[12] = system: subject with androgenetic alopecia; assay: Treatment of androgenetic alopecia; assay type: in vivo, human; conditions: person, 14 months in total
Experimental: A person was treated with varying doses (2 and 4 mg) taken in the morning or evening, for periods of 2 weeks for each dose and continued with the optimal dose for 14 months in total.

[13] = system: subjects with treatment-refractory insomnia; assay: Dipyridamole in combination with melatonin for insomnia; assay type: in vivo, human
Experimental: The melatonin dose ranged between 0.25 mg and 10 mg per pill.

[14] = system: subjects with keratoconjunctivitis sicca; assay: Keratoconjunctivitis sicca treatment with low dose oral dipyridamole; assay type: in vivo, human; conditions: Subject 1 (person thirteen), 2 mg
Experimental: Each of the three subjects was unresponsive to cyclosporine eye drops or to lubricating drops which are the conventional treatments.
Subject 1 (person thirteen), Subject 2 (person twelve) and Subject 3 (person twelve) were treated with varying doses (2, 5 and 10 mg) taken before sleep or in the afternoon/evening hours, for initial periods of up to 2 weeks for each dose to establish optimal dosing, and followed for up to 12 months in total.

[15] = system: subjects with xerostomia; assay: Xerostomia treatment; assay type: in vivo, human; conditions: Subject 1 (person twelve), 2 mg
Experimental: Subject 1 (person twelve) and Subject 2 (person three) were treated with varying doses (1, 2, 3, 4, 5 and 10 mg) taken in the morning or evening, for periods of 2 weeks for each dose then continued on optimal dose for 15 months in total.

[16] = IV or oral 20-50 mg, followed up to 60 hours

## OCCN(CCO)c1nc(N2CCCCC2)c2nc(N(CCO)CCO)nc(N3CCCCC3)c2n1 [dipyridamole]
[1]; Subject 1, daily at night
  optimal dose for complete restoration of erectile function: 2 mg
[1]; Subject 3 (person seven), 2 mg
  time to restoration of erectile function: ≤ 10 days
[1]; Subject 3 (person seven), 10 mg daily
  effect on erectile function at 10 mg daily: the beneficial effect was lost
[1]; Subject 4, 2 mg
  time to resolution of erectile dysfunction: ≤ 5 days
[1]; Subject 5, 2 mg
  time to resolution of erectile dysfunction: ≤ 2 weeks
[1]; Subject 5, 10 mg
  effect of 10 mg compared with 5 mg: did not produce the same benefit as 5 mg
[1]; Subject 5, taken with food
  effect when taken with food: 2 mg was not that effective but 5 mg was
[2]; Subject 1, 2 mg once daily added to oxycodone
  outcome on pain related to chronic fibromyalgia: complete relief of pain
[2]; Subject 2 (person twelve), 2 mg
  time to complete weaning off oxycodone while maintaining pain relief: ≤ 3 months
[2]; Subject 2 (person twelve), 10 mg instead of 2 mg
  pain relief at 10 mg: negligible pain relief
[2]; Subject 3 (person five), 2 mg
  duration of low dose dipyridamole use after which Percocet was weaned off: 2 months
[3]
  white blood cell count after treatment: 18,000
[4]; 10 mg or more, 4 subjects
  effect on insomnia at 10 mg or more (conclusion of example): little or no effect
[4]; Subject 1, 10 mg
  benefit on insomnia at 10 mg: negligible benefit compared to lower doses
[4]; Subject 1, oral, before sleep
  optimal dose for ensuring an excellent night's sleep: 2 mg
[4]; Subject 2 (person nine), 2 mg
  duration of undisturbed sleep: 6-8 hours per night
[4]; Subject 2 (person nine), oral, before sleep
  optimal dose for ensuring an excellent, undisturbed sleep: 2 mg
[5]
  PSA (Prostate Specific Antigen) after treatment: 14
[6]
  potency after storage: maintained its potency
[7]; propylene glycol
  solubility in propylene glycol: ≥ 10 mg per ml
[7]; pure propylene glycol, dissolved at 5, 10 and 20 mg/mL
  solubility in propylene glycol: surprisingly soluble in propylene glycol
[7]; water
  solubility in water: difficult to dissolve in water
[8]
  time to resolution of bone pain related to metastatic prostate cancer to the cervical spine: ≤ 4 days
[9]; 75 mg q.i.d.
  peak plasma concentration at steady state: 1.54 µg/mL
  trough plasma concentration at steady state: 0.269 µg/mL
[9]; 75 mg t.d.s.
  geometric mean peak plasma concentration at steady state: 1.86 µg/mL
  geometric mean trough plasma concentration at steady state: 0.13 µg/mL
[9]; 100 mg q.i.d.
  peak plasma concentration at steady state: 2.36 µg/mL
  trough plasma concentration at steady state: 0.432 µg/mL
[9]; IV only, 20-50 mg, followed up to 60 hours
  half-life, first phase of tri-exponential plasma decline: 5 min
[9]; [16]
  half-life, second phase of tri-exponential plasma decline: 53 min
  half-life, third phase of tri-exponential plasma decline: 600 to 720 min
[9]; humans, following oral administration
  time to peak plasma levels: 1 to 3 h
[9]; humans, intravenous (IV) administration
  distribution half-life: about 25 minutes
[9]; humans, oral administration
  distribution half-life: about 3 hours
[9]; single dose administration
  dose range in which dose linearity was demonstrated: 25 to 150 mg
[10]; Subject 3, 2 mg once daily, previously 5-6 times yearly
  incidence of viral infections under treatment: 1-2 times yearly
[10]; Subject 3, 2 mg twice daily, previously 7-10 days
  time to resolution of infection symptoms: 1 to 2 days
[10]; Subject 3, 10 mg, one occasion
  effect of 10 mg dose on viral infection: failed to deliver the same benefit as the 2 mg dose
[10]; Subject 3, once daily
  optimal dose for reducing incidence of viral infections: 2 mg
[10]; Subject 4, 2 mg daily for 10 months, previously every 3-4 months
  recurrence of infections: without any recurrence of infections
[10]; Subject 4, 2 mg twice daily, upper respiratory symptoms plus viral conjunctivitis
  time to complete relief of symptoms of severe viral infection: 1 to 2 days
[11]
  outcome on recurrent sore throat: complete resolution of recurrent sore throat
[12]
  optimal dose for expansion of hairline, thicker hair, decreased hair loss and increased growth of chest and abdominal hair: 4 mg
[13]; six subjects, 1 or 2 mg daily
  prior response of insomnia to low dose dipyridamole alone: somewhat responsive
[14]
  outcome on dry eye symptoms: complete relief of dry eye symptoms
[15]
  duration of occasionally recurring symptoms: 2 to 3 h
[15]; recurrence once every few weeks
  reduction in severity of occasionally recurring symptoms: 70%

## COc1ccc2[nH]cc(CCNC(C)=O)c2c1 [melatonin]
[13]; six subjects with treatment-refractory insomnia
  prior response of insomnia to melatonin alone: unresponsive

Reference: patent US20180289708A1 (priority 2015, published 2018)
